Each structure is given as a SMILES string. “And” between values parts separate entries of the source, which are not always exact repeats. Equal entries are not always repeated. Where two headings read alike, the source gives them in different places. A value given as a limit tells only on which side of the number the result lay.

The target in data set [1] is T1, AURKA (Homo sapiens, UniProt O14965).
T1 sequence (O14965 1-403): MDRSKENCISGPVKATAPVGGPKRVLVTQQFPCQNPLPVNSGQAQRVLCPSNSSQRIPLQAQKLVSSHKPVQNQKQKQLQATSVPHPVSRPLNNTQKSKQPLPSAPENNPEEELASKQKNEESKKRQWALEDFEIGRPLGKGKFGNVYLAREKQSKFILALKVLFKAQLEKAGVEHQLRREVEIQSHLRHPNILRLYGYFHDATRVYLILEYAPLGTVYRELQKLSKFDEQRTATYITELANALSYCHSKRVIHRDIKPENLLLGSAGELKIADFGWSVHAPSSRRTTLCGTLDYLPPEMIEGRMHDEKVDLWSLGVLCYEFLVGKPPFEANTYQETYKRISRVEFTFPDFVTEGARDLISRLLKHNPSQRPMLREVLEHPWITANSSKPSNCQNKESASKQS
The data set can be described thus: AURKA degradation, Simple Western.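 As to AURKA Degradation 24h @1000nM: measured in NGP neuroblastoma cells.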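 As to AURKA Degradation 24h @100nM: measured in NGP neuroblastoma cells.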 It is filed as cell-based. More on the design: Representative Western blot showing levels of endogenous proteins MDR1, MYCN, AURKA, and CRBN in untreated cell lines; endogenous in cells; host or cells: NGP, IMR-32, SJNB-8, SK-N-BE(2)-C, SK-N-SH, SK-N-AS, SJNB-1, RPE, HEK293T. As to conditions: for pDC50: AURKA degradation; for time to robust AURKA depletion: IMR-32, 500 nM; for AURKA degradation potency upon cotreatment with tariquidar (in words): 100 nM, 1 μM tariquidar; for AURKA Degradation 24h @100nM / AURKA Degradation 24h @1000nM / AURKA degradation potency upon cotreatment with tariquidar (in words): 24h. An outline of the steps: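 Cells treated with compound in medium; lysed in RIPA and analysed by Simple Western (0.8 μg/μL lysate, 0.2 μg/μL for MYCN). Peak areas were normalized to vinculin, giving fold change versus DMSO (mean of 3 experiments); DC50 interpolated from four-parameter dose–response curves.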

Data set [2] is described as follows: Metabolic stability in mouse liver microsomes (MLM). In kind it is in vitro ADME, CD-1 mouse. As to conditions: CD-1. In short, it runs like this: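 Compounds incubated at 37 °C: CD-1 mouse plasma, 1 μM, 0–2 h; CD-1 MLM 0.1 mg/mL, 0.1 μM, 0–60 min; CD-1 hepatocytes 0.7 million cells/mL, 1 μM, 0–2 h. Parent remaining by HPLC-MS/MS relative to 0 h; t1/2 from initial log-linear slope assuming first-order kinetics; one run, duplicate samples.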
In general terms: Liver microsomes are a subcellular fraction often used to study metabolism.

A short description of data set [3]: Metabolic stability in mouse hepatocytes (MH). The settings on record: CD-1. In kind it is in vitro ADME, CD-1 mouse. The protocol:
Plasma and metabolic stability tests were performed by Eurofins Discovery. For the plasma stability assay, test compounds were incubated in CD-1 mouse plasma for 0, 0.5, 1, 1.5, and 2 h at 37 °C at a concentration of 1 μM. For the metabolic stability assay, test compounds were incubated at 37 °C in either (1) CD-1 mouse liver microsomes (MLM) (0.1 mg/mL) at a concentration of 0.1 μM for 0, 15, 30, 45, and 60 min or (2) CD-1 mouse hepatocytes (MH) (0.7 million viable cells/mL) at a concentration of 1 μM for 0, 0.5, 1, 1.5, and 2 h. At the respective time points, acetonitrile was added to the incubation mixture followed by centrifugation. Samples were analyzed by HPLC-MS/MS and peak areas were recorded for each analyte. Compound stability, expressed as the percentage of parent compound remaining, was calculated by comparing the peak area of the compound at each time point relative to that of the 0h time point. Percentage compound remaining is plotted as a function of time as a logarithmic curve. Half-life (t 1/2) is estimated from the slope of the initial linear range of the curve, assuming first-order kinetics. […] Both plasma and metabolic assay experiments were performed once with 2 replicate samples each.

[4] abbreviates: NGP, 24 h treatment, read-out: AURKA DC50.
[5] abbreviates: SK-N-BE(2)-C, read-out: AURKA DC50 24h.

Consider `O=C1CCC(Nc2ccc(N3CCN(C4CN(C(=O)[C@]5(Cc6cccc(Nc7nccs7)n6)CC[C@@H](Oc6cccc(Cl)c6F)CC5)C4)CC3)c(F)c2)C(=O)N1` (stereo partly shown) [PROTAC 18], for which, in data set [1], the “AURKA Degradation 24h @100nM” value stood at 88, the “AURKA Degradation 24h @1000nM” value came out at 92 and the pDC50 is on record as 8,2. Moreover, the Dmax (usually the greatest extent of degradation seen) in data set [1] (NGP, 24 h treatment) is 92%. Besides, the DC50 (in general, the midpoint of the concentration-degradation curve) in data set [1] (setting [4]) worked out at 6 nM. Moreover, the DC50 in data set [1] (read-out: AURKA DC50) was determined as 6.4 nM. Besides, in data set [2], the intrinsic metabolic clearance (microsomal CLint) (commonly the rate of metabolic loss divided by the concentration) at 0.1 μM was 369 µL/min/mg. Also, the hepatocyte CLint (usually the capacity of the preparation to metabolise the compound, expressed as a volume cleared per time) at 1 μM in data set [3] was less than 4.1 µL/min/1e6 cells.

As for `O=C1CCN(c2ccc(N3CCN(CC4CN(C(=O)[C@]5(Cc6cccc(Nc7nccs7)n6)CC[C@@H](Oc6cccc(Cl)c6F)CC5)C4)CC3)nc2)C(=O)N1` [PROTAC 23], in data set [1], the “AURKA Degradation 24h @100nM” value is 88, the “AURKA Degradation 24h @1000nM” value was found to be 88 and the pDC50 was 8,4. Further, in data set [1] (NGP, 24 h treatment), the “AURKA degradation activity (in words)” value is “restored degradation activity” and the Dmax worked out at 90%. Also, the DC50 in data set [1] (read-out: AURKA DC50) worked out at 4 nM. Further, the intrinsic metabolic clearance (microsomal CLint) at 0.1 μM in data set [2] worked out at 666 µL/min/mg. Moreover, in data set [3], the hepatocyte CLint at 1 μM was less than 4.1 µL/min/1e6 cells.

As for `O=C1CCN(c2ccc(N3CCN(CC4CCN(C(=O)[C@]5(Cc6cccc(Nc7nccs7)n6)CC[C@@H](Oc6cccc(Cl)c6F)CC5)CC4)CC3)nc2)C(=O)N1` [PROTAC 24], in data set [1], the “AURKA Degradation 24h @100nM” value is on record as 88, the “AURKA Degradation 24h @1000nM” value is given as 93 and the pDC50 was 8,23. Also, in data set [1] (NGP, 24 h treatment), the “AURKA degradation activity (in words)” value was “restored degradation activity” and the Dmax was found to be 94%. Also, the half-maximal degradation concentration (DC50) in data set [1] (read-out: AURKA DC50) was determined as 5.8 nM. Also, the microsomal CLint at 0.1 μM in data set [2] came to 565 µL/min/mg. For the same compound, in data set [3], the intrinsic metabolic clearance (hepatocyte CLint) at 1 μM is less than 4.1 µL/min/1e6 cells.

As for `Cc1cc(Nc2ccc(F)c(CC3(C(=O)N4CC(N5CCN(c6ccc(NC7CCC(=O)NC7=O)cc6F)CC5)C4)CCN(Cc4cccc(Cl)c4F)CC3)n2)n[nH]1` (stereo not shown) [PROTAC 29], in data set [1], the “AURKA Degradation 24h @100nM” value was found to be 78, the “AURKA Degradation 24h @1000nM” value is 84 and the pDC50 was 8,11. In data set [1] (NGP, 24 h treatment), the “AURKA DC50” value is recorded as “single-digit nanomolar range” and the greatest degradation seen (Dmax) amounted to 87%. For the same compound, the DC50 in data set [1] (read-out: AURKA DC50) turned out to be 7.8 nM. This compound also returned a microsomal CLint at 0.1 μM in data set [2] of 438 µL/min/mg. Moreover, in data set [3], the hepatocyte CLint at 1 μM is less than 4.1 µL/min/1e6 cells.

As for `O=C1CCC(N2C(=O)c3cccc(OCCOCCOCCOCCNC(=O)[C@]4(Cc5cccc(Nc6nccs6)n5)CC[C@@H](Oc5cccc(Cl)c5F)CC4)c3C2=O)C(=O)N1` (stereo partly shown) [SK2188, reference compound], in data set [1], the “AURKA Degradation 24h @100nM” value was determined as 86 and the pDC50 is reported as 8,41. This compound also showed a maximal degradation (Dmax) in data set [1] (NGP, 24 h treatment) of 89%. For the same compound, in data set [1] (read-out: AURKA DC50), the DC50 turned out to be 3.9 nM. Further, the microsomal CLint at 0.1 μM in data set [2] came to 1390 µL/min/mg.

With `Cc1cc(Nc2ccc(F)c(CC3(C(=O)N4CCC(CN5CCN(c6ccc(N7CCC(=O)NC7=O)cn6)CC5)CC4)CCN(Cc4cccc(Cl)c4F)CC3)n2)n[nH]1` [SK4454], in data set [1], the “AURKA Degradation 24h @100nM” value is recorded as 88, the “AURKA Degradation 24h @1000nM” value stood at 92, the pDC50 is on record as 8,09 and the “time to robust AURKA depletion” value is reported as no more than 1 h. For the same compound, in data set [1] (NGP, 24 h treatment), the “AURKA DC50” value was “single-digit nanomolar range” and the Dmax was 90%. Also, in data set [1] (setting [4]), the 50% degradation concentration (DC50) was less than 25 nM. Further, in data set [1] (SJNB-8, read-out: AURKA DC50 24h), the DC50 is < 25 nM and 23 nM. For the same compound, the “AURKA degradation potency upon cotreatment with tariquidar (in words)” value in data set [1] (SK-N-BE(2)-C) is given as “significantly enhanced”. Besides, the 50% degradation concentration (DC50) in data set [1] (setting [5]) is 270 nM. Moreover, the DC50 in data set [1] (read-out: AURKA DC50) amounted to 8.1 nM. The same compound had an intrinsic clearance (microsomal CLint) at 0.1 μM in data set [2] of 437 µL/min/mg. The compound also came in with a hepatocyte CLint at 1 μM in data set [3] of less than 4.1 µL/min/1e6 cells.

As to `Cc1cc(Nc2ccc(F)c(CC3(C(=O)N4CCC(F)(CN5CCN(c6ccc(N7CCC(=O)NC7=O)cn6)CC5)CC4)CCN(Cc4cccc(Cl)c4F)CC3)n2)n[nH]1` [SK5527], the “AURKA Degradation 24h @100nM” value in data set [1] was 88. Besides, the “AURKA Degradation 24h @1000nM” value in data set [1] is listed as 93. Besides, in data set [1], the pDC50 is given as 8,68. In addition, the DC50 in data set [1] (HEK293T, read-out: AURKA DC50 24h) was 17 nM; in data set [1] (setting [4]), less than 25 nM; in data set [1] (RPE, read-out: AURKA DC50 24h) it was 15 nM; in data set [1] (SJNB-1, read-out: AURKA DC50 24h), 56 nM; in data set [1] (SK-N-AS, read-out: AURKA DC50 24h), 30 nM; in data set [1] (setting [5]) it was 73 nM. Further, the DC50 in data set [1] (SK-N-SH, read-out: AURKA DC50 24h) was determined as 23 nM; in data set [1] (read-out: AURKA DC50), 2.1 nM. The “time to robust AURKA depletion” value in data set [1] is no more than 1 h. In addition, in data set [1] (NGP, 24 h treatment), the “AURKA DC50” value is given as “single-digit nanomolar range”. This compound displayed a Dmax in data set [1] (NGP, 24 h treatment) of 89%. Also, in data set [1] (SK-N-BE(2)-C), the “AURKA degradation potency upon cotreatment with tariquidar (in words)” value is given as “significantly enhanced”. Also, the intrinsic clearance (microsomal CLint) at 0.1 μM in data set [2] stood at 582 µL/min/mg. The intrinsic clearance (hepatocyte CLint) at 1 μM in data set [3] turned out to be 4.4 µL/min/1e6 cells.
